Assay results as given in the supplement of paper PMC11061612.

Assays:
Assay in all cases: combination Emax (second highest fraction inhibited in the dose matrix, 72 h); higher = more inhibition; extreme values may be limits of the assay
GAMG (Glioblastoma) = test system: GAMG (Glioblastoma)
Outline: (§1)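 Bliss excess equals the observed combination effect minus the expected value EA + EB − EA·EB, where EA and EB are the effects of each agent alone. Combination Emax is the second-highest inhibition within the matrix. Inhibition was scaled from CellTiter-Glo 2.0 luminescence, with 0 set by vehicle wells and 1 by blank wells, after 72 hours of two-drug dosing of cells plated in 1536-well plates.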

[1] = test system: NCI-H524 (Small Cell Lung Carcinoma)
Outline: as §1

[2] = test system: HuH-7 (Hepatocellular Carcinoma)
Outline: as §1

KS-1 (Glioblastoma) = test system: KS-1 (Glioblastoma)
Outline: as §1

MPP-89 (Mesothelioma) = test system: MPP-89 (Mesothelioma)
Outline: as §1

[3] = test system: NCI-H1568 (Lung Adenocarcinoma)
Outline: as §1

[4] = test system: Detroit562 (Head and Neck Carcinoma)
Outline: as §1

[5] = test system: BE-13 (T-Lymphoblastic Leukemia)
Outline: as §1

[6] = test system: NCI-H209 (Small Cell Lung Carcinoma)
Outline: as §1

[7] = test system: YAPC (Pancreatic Carcinoma)
Outline: as §1

NCI-H2722 (Mesothelioma) = test system: NCI-H2722 (Mesothelioma)
Outline: as §1

[8] = test system: SNU-16 (Gastric Carcinoma)
Outline: as §1

NCI-H2052 (Mesothelioma) = test system: NCI-H2052 (Mesothelioma)
Outline: as §1

[9] = test system: LCLC-97TM1 (Non-Small Cell Lung Carcinoma)
Outline: as §1

[10] = test system: CAL-33 (Oral Cavity Carcinoma)
Outline: as §1

[11] = test system: KMRC-20 (Kidney Carcinoma)
Outline: as §1

BE2-M17 (Neuroblastoma) = test system: BE2-M17 (Neuroblastoma)
Outline: as §1

[12] = test system: OV-56 (Ovarian Carcinoma)
Outline: as §1

[13] = test system: SW1710 (Bladder Carcinoma)
Outline: as §1

[14] = test system: KYAE-1 (Esophageal Adenocarcinoma)
Outline: as §1

Row | SMILES | combination Emax (GAMG (Glioblastoma)) | combination Emax [1] | combination Emax [2] | combination Emax (KS-1 (Glioblastoma)) | combination Emax (MPP-89 (Mesothelioma)) | combination Emax [3] | combination Emax [4] | combination Emax [5] | combination Emax [6] | combination Emax [7] | combination Emax (NCI-H2722 (Mesothelioma)) | combination Emax [8] | combination Emax (NCI-H2052 (Mesothelioma)) | combination Emax [9] | combination Emax [10] | combination Emax [11] | combination Emax (BE2-M17 (Neuroblastoma)) | combination Emax [12] | combination Emax [13] | combination Emax [14]
1 | COc1nnc2ccc(N3CCC(c4ccc(OCCN5CCN(C)C(=O)[C@H]5C)cc4)CC3)nn12 [AZD5153] + C[C@@H]1COCCN1C2=NC(=NC(=C2)C3(CC3)[S@](=N)(=O)C)C4=C5C=CNC5=NC=C4 [AZD6738] (first compound max 1 µM, 7x7, partner max 10 µM) | 0.682 | 0.915 | 0.724 | 0.69 | 0.604 | 0.476 | 0.919 | 0.985 | 0.908 | 0.529 | 0.589 | 0.98 | 0.209 | 0.87 | 0.839 | 0.775 | 0.92 | 0.793 | 0.396 | 0.263
2 | COc1cccc(OCCCN)c1-c1cc(Nc2cnc(C#N)cn2)n[nH]1 [Prexasertib] + C=CCn1c(=O)c2cnc(Nc3ccc(N4CCN(C)CC4)cc3)nc2n1-c1cccc(C(C)(C)O)n1 [AZD1775] (first compound max 1 µM, partner max 1 µM) | 0.951 | 1 | 0.438 | 0.581 | 0.826 | 0.563 | 0.949 | 1 | 0.988 | 0.669 | 0.308 | 1 | 0.699 | 0.951 | 0.916 | 0.885 | 0.998 | 0.921 | 0.823 | 0.795
3 | CCN(CCO)CCCOc1ccc2c(Nc3cc(CC(=O)Nc4cccc(F)c4)[nH]n3)ncnc2c1 [AZD2811] + C=CCn1c(=O)c2cnc(Nc3ccc(N4CCN(C)CC4)cc3)nc2n1-c1cccc(C(C)(C)O)n1 [AZD1775] (first compound max 1 µM, partner max 1 µM) | 0.417 | 0.976 | 0.132 | 0.481 | 0.511 | 0.429 | 0.828 | 0.982 | 0.879 | 0.408 | 0.278 | 0.916 | 0.38 | 0.842 | 0.877 | 0.6 | 0.618 | 0.139 | 0.317 | 0.395
4 | Cn1cnc2c(F)c(Nc3ccc(Br)cc3Cl)c(C(=O)NOCCO)cc21 [Selumetinib] + C=CCn1c(=O)c2cnc(Nc3ccc(N4CCN(C)CC4)cc3)nc2n1-c1cccc(C(C)(C)O)n1 [AZD1775] (first compound max 10 µM, partner max 1 µM) | 0.527 | 0.617 | 0.327 | 0.277 | 0.566 | 0.489 | 0.639 | 1 | 0.858 | 0.396 | 0.304 | 0.802 | 0.284 | 0.87 | 0.836 | 0.567 | 0.887 | 0.0799 | 0.264 | 0.116
5 | CC1(C)CCC(CN2CCN(c3ccc(C(=O)NS(=O)(=O)c4ccc(NCC5CCOCC5)c([N+](=O)[O-])c4)c(Oc4cnc5[nH]ccc5c4)c3)CC2)=C(c2ccc(Cl)cc2)C1 [Venetoclax] + Cn1cnc2c(F)c(Nc3ccc(Br)cc3Cl)c(C(=O)NOCCO)cc21 [Selumetinib] (first compound max 1 µM, 7x7, partner max 3 µM) | 0.157 | 0.113 | 0.122 | 0.261 | 0.159 | 0.0499 | 0.321 | 0.461 | 0.436 | 0.145 | 0.14 | 0.241 | 0.213 | 0.458 | 0.266 | 0.217 | 0.635 | 0.108 | 0.216 | 0.0726
6 | CC1(C)CCC(CN2CCN(c3ccc(C(=O)NS(=O)(=O)c4ccc(NCC5CCOCC5)c([N+](=O)[O-])c4)c(Oc4cnc5[nH]ccc5c4)c3)CC2)=C(c2ccc(Cl)cc2)C1 [Venetoclax] + C=CCn1c(=O)c2cnc(Nc3ccc(N4CCN(C)CC4)cc3)nc2n1-c1cccc(C(C)(C)O)n1 [AZD1775] (first compound max 1 µM, partner max 1 µM) | 0.836 | 0.895 | 0.386 | 0.504 | 0.841 | 0.479 | 0.545 | 1 | 0.978 | 0.307 | 0.311 | 0.912 | 0.249 | 0.891 | 0.761 | 0.627 | 0.825 | 0.168 | 0.315 | 0.706
7 | CC1(C)CCC(CN2CCN(c3ccc(C(=O)NS(=O)(=O)c4ccc(NCC5CCOCC5)c([N+](=O)[O-])c4)c(Oc4cnc5[nH]ccc5c4)c3)CC2)=C(c2ccc(Cl)cc2)C1 [Venetoclax] + C[C@@H](Nc1cc(F)cc(F)c1)c1cc(C(=O)N(C)C)cc2c(=O)cc(N3CCOCC3)oc12 [AZD8186] (first compound max 1 µM, 7x7, partner max 3 µM) | 0.453 | 0.535 | 0.144 | 0.341 | 0.236 | 0.0798 | 0.137 | 0.375 | 0.515 | 0.0625 | 0.17 | 0.251 | 0.217 | 0.129 | 0.149 | 0.245 | 0.276 | 0.0859 | 0.194 | 0.554
8 | COc1nnc2ccc(N3CCC(c4ccc(OCCN5CCN(C)C(=O)[C@H]5C)cc4)CC3)nn12 [AZD5153] + C=CCn1c(=O)c2cnc(Nc3ccc(N4CCN(C)CC4)cc3)nc2n1-c1cccc(C(C)(C)O)n1 [AZD1775] (first compound max 1 µM, partner max 1 µM) | 0.665 | 0.908 | 0.682 | 0.686 | 0.482 | 0.438 | 0.823 | 1 | 0.912 | 0.461 | 0.58 | 0.871 | 0.407 | 0.848 | 0.724 | 0.694 | 0.964 | 0.279 | 0.36 | 0.0798
9 | NC1(C(=O)N[C@@H](CCO)c2ccc(Cl)cc2)CCN(c2ncnc3[nH]ccc23)CC1 [Capivasertib] + CC(C)n1c(=O)n(C)c2cnc3cc(F)c(-c4ccc(OCCCN5CCCCC5)nc4)cc3c21 [AZD1390] (first compound max 10 µM, 7x7, partner max 0.3 µM) | 0.512 | 0.343 | 0.156 | 0.323 | 0.439 | 0.163 | 0.599 | 0.296 | 0.17 | 0.223 | 0.34 | 0.225 | 0.407 | 0.392 | 0.478 | 0.336 | 0.177 | 0.209 | 0.348 | 0.109
10 | NC1(C(=O)N[C@@H](CCO)c2ccc(Cl)cc2)CCN(c2ncnc3[nH]ccc23)CC1 [Capivasertib] + Cn1cnc2c(F)c(Nc3ccc(Br)cc3Cl)c(C(=O)NOCCO)cc21 [Selumetinib] (first compound max 10 µM, 7x7, partner max 10 µM) | 0.653 | 0.303 | 0.45 | 0.551 | 0.386 | 0.229 | 0.798 | 0.276 | 0.163 | 0.346 | 0.336 | 0.461 | 0.443 | 0.849 | 0.789 | 0.392 | 0.654 | 0.398 | 0.409 | 0.13
11 | COc1nnc2ccc(N3CCC(c4ccc(OCCN5CCN(C)C(=O)[C@H]5C)cc4)CC3)nn12 [AZD5153] + CCN(CCO)CCCOc1ccc2c(Nc3cc(CC(=O)Nc4cccc(F)c4)[nH]n3)ncnc2c1 [AZD2811] (first compound max 1 µM, 7x7, partner max 1 µM) | 0.609 | 0.97 | 0.463 | 0.641 | 0.467 | 0.283 | 0.892 | 0.92 | 0.458 | 0.342 | 0.521 | 0.868 | 0.395 | 0.764 | 0.609 | 0.414 | 0.644 | 0.283 | 0.33 | 0.0877
12 | CN(C)CCCOc1ccc(-c2ccc3ncc4c(c3c2)n(C2CCOCC2)c(=O)n4C)cn1 [AZD0156] + CCN(CCO)CCCOc1ccc2c(Nc3cc(CC(=O)Nc4cccc(F)c4)[nH]n3)ncnc2c1 [AZD2811] (first compound max 1 µM, 7x7, partner max 1 µM) | 0.22 | 0.973 | 0.0893 | 0.291 | 0.105 | 0.131 | 0.75 | 0.674 | 0.552 | 0.137 | 0.146 | 0.593 | 0.284 | 0.371 | 0.71 | 0.128 | 0.411 | 0.062 | 0.0832 | 0.103
13 | COc1cccc(OCCCN)c1-c1cc(Nc2cnc(C#N)cn2)n[nH]1 [Prexasertib] + CCc1c2c(nc3ccc(O)cc13)-c1cc3c(c(=O)n1C2)COC(=O)[C@]3(O)CC [SN-38] (first compound max 1 µM, 7x7, partner max 0.3 µM) | 0.993 | 1 | 0.861 | 0.536 | 0.897 | 0.848 | 1 | 1 | 1 | 0.653 | 0.471 | 1 | 0.853 | 1 | 0.957 | 0.982 | 0.999 | 0.996 | 0.86 | 0.79
